Laboratory results: publication PMC12299890 (Pharmaceuticals, 2025)
Read-outs that look alike come from different tables or passages of the source.

Assay: Serum concentration and pharmacokinetics of SCI after oral gavage in Wistar rats
Format: in vivo, Wistar rat
Settings: for AUC(0-t) / Cmax / Tmax / k el / MRT / half-life: male, Wistar, rat, po, 10 mg/kg; for k el: read-out: K (elimination rate constant) (converted); for MRT: read-out: MRT (mean residence time); for half-life: read-out: T0.5e (elimination half-life) (converted)
Description: All procedures were performed according to the Local Ethical Committee of Experiments on Animals guidelines in Olsztyn, Poland. The experiment was conducted in the same way as described by Antonowski et al.. Briefly, the experiment was performed on male Wistar rats (n = 6). Rats were maintained in ventilated rooms under a standard day photoperiod (12:12 h light–dark) as well as with lights on from 700 to 1900 h at 21 °C. All rats had free access to food and water. At 42 days of age, rats were randomized into experimental groups (Table 1 and Table 4).
Before the administration of cyclitol (10 mg/kg), the rats were fasting for 12 h (Table 1). […] Access to water was unlimited during the experiments. The study group (n = 6) was divided into two subgroups (n = 3 rats per subgroup). This practice allows for the use of only 6 rats for the entire experiment in accordance with the 3 Rs principle. Rats received the compound at a dose of 10 mg/kg body weight. Rats were weighed before starting the compound administration. Cyclitol was administered to the rats from the study group using a stainless-steel gastric tube with a ball tip (manufacturer—Agnthos, curved gastric tube, 16G, 3 mm tip, 75 mm). Cyclitol was dissolved in distilled water to a maximum volume of 1 mL. The prepared solution was administered to the animal.
Blood samples were collected into Eppendorf tubes and were centrifuged at 2500× g for 10 min at 8 °C the following day. Blood was harvested from the tail at a specific time. […] Serum was stored at −80 °C for subsequent analyses.
The analysis is described in detail by Antonowski and co-workers. Briefly, the first step was to remove the protein, then concentrate the sample in a speed vacuum evaporator to dryness. Next, samples were analyzed using the high-resolution gas chromatography method. We used a gas chromatograph GC2010Plus (Shimadzu, Tokyo, Japan) with a capillary column ZEBRON ZB-1 (15 m length, 0.25 mm diameter, and 0.1 μm film thickness, Phenomenex, Torrance, CA, USA). Helium was used as a carrier gas (at a flow rate of 1.18 mL min^−1). […] Finally, scyllo-inositol was quantified by using a standard.
The PK parameters were calculated using PK Solver. PKSolver is an add-in program for pharmacokinetic and pharmacodynamic data analysis […]. […] The area under the drug concentration–time curve from time zero to the time of the last quantifiable concentration (AUClast) was calculated using the trapezoidal rule. The volume over which the drug was distributed (Vd) and clearance (CL) were conducted by PK Solver. […] Nevertheless, we estimated K by log-linear regression analysis on data points on the terminal log-linear phase. Noncompartmental analysis is generally the preferred methodology to use in that it requires fewer assumptions than model-based approaches. We presented the results for individual rats, subgroups of rats, and for all subjects studied. The content of scyllo-inositol was calculated from the standard curves of appropriate components. To determine the terminal phase, […] was sufficient.
An analysis of all parameters was carried out with GraphPad Prism software (Version 10 Graph Pad Software Inc., La Jolla, CA, USA). Data are expressed as means ± SEM or individual data. Briefly, AUClast was calculated using the trapezoidal method. The T0.5 of oral administration was calculated as 0.693/K.

[1] = serum, Mean of rats 1–3 ± SEM, oral 10 mg/kg
[2] = serum, Mean of rats 1–3 ± SEM, serum, oral 10 mg/kg
[3] = serum, Mean of rats 4–6 ± SEM, oral 10 mg/kg
[4] = serum, Mean of rats 4–6 ± SEM, serum, oral 10 mg/kg
[5] = serum, Rat No 1, serum, oral 10 mg/kg
[6] = serum, Rat No 2, serum, oral 10 mg/kg
[7] = serum, Rat No 3, serum, oral 10 mg/kg
[8] = serum, Rat No 4, serum, oral 10 mg/kg
[9] = serum, Rat No 5, serum, oral 10 mg/kg
[10] = serum, Rat No 6, serum, oral 10 mg/kg
[11] = serum, mean serum profile of six rats, oral 3.92 mg SCI (10 mg/kg)
[12] = mean serum profile of six rats, oral 3.92 mg SCI (10 mg/kg)

For `O[C@H]1[C@H](O)[C@@H](O)[C@H](O)[C@@H](O)[C@@H]1O` [SCI, scyllo-inositol], the AUC(0-t) [1] was 36400 ± 3390 ng·h/mL, the Cmax [1] was 6730 ± 291 ng/mL and the Tmax [1] was 1.33 ± 0.167 h. For the same compound, the k el [2] was 0.000237 s⁻¹, the MRT [2] was 36.2 ± 20.7 h and the half-life [2] was 25.1 ± 14.3 h. For the same compound, the AUC(0-t) [3] was 19800 ± 4260 ng·h/mL, the Cmax [3] was 4900 ± 874 ng/mL and the Tmax [3] was 2.67 ± 0.667 h. The k el [4] was 0.000126 s⁻¹, the MRT [4] was 3.6 ± 1.48 h and the half-life [4] was 2.5 ± 1.02 h. It also gave an AUC(0-t) (serum, Rat No 1, oral 10 mg/kg) of 40800 ng·h/mL, a Cmax (serum, Rat No 1, oral 10 mg/kg) of 7200 ng/mL and a Tmax (serum, Rat No 1, oral 10 mg/kg) of 1.5 h. For the same compound, the k el [5] was 0.0007 s⁻¹, the MRT [5] was 0.397 h and the half-life [5] was 0.275 h. For the same compound, the AUC(0-t) (serum, Rat No 2, oral 10 mg/kg) was 38600 ng·h/mL, the Cmax (serum, Rat No 2, oral 10 mg/kg) was 6200 ng/mL and the Tmax (serum, Rat No 2, oral 10 mg/kg) was 1.5 h. The k el [6] was 3.85e-06 s⁻¹, the MRT [6] was 72.1 h and the half-life [6] was 50 h. The AUC(0-t) (serum, Rat No 3, oral 10 mg/kg) was 29700 ng·h/mL, the Cmax (serum, Rat No 3, oral 10 mg/kg) was 6800 ng/mL and the Tmax (serum, Rat No 3, oral 10 mg/kg) was 1 h. It also gave a k el [7] of 7.67e-06 s⁻¹, an MRT [7] of 36.3 h and a half-life [7] of 25.1 h. The AUC(0-t) (serum, Rat No 4, oral 10 mg/kg) was 11400 ng·h/mL, the Cmax (serum, Rat No 4, oral 10 mg/kg) was 3200 ng/mL and the Tmax (serum, Rat No 4, oral 10 mg/kg) was 2 h. It also gave a k el [8] of 0.000253 s⁻¹, an MRT [8] of 1.1 h and a half-life [8] of 0.761 h. It also gave an AUC(0-t) (serum, Rat No 5, oral 10 mg/kg) of 25300 ng·h/mL, a Cmax (serum, Rat No 5, oral 10 mg/kg) of 6100 ng/mL and a Tmax (serum, Rat No 5, oral 10 mg/kg) of 4 h. The k el [9] was 4.47e-05 s⁻¹, the MRT [9] was 6.21 h and the half-life [9] was 4.31 h. It also gave an AUC(0-t) (serum, Rat No 6, oral 10 mg/kg) of 22600 ng·h/mL, a Cmax (serum, Rat No 6, oral 10 mg/kg) of 5400 ng/mL and a Tmax (serum, Rat No 6, oral 10 mg/kg) of 2 h. The k el [10] was 7.95e-05 s⁻¹, the MRT [10] was 3.5 h and the half-life [10] was 2.42 h. For the same compound, the AUC(0-t) [11] was 23500 ng·h/mL, the Cmax [11] was 5930 ng/mL and the Tmax [11] was ~1.5 h. It also gave a k el [11] of 1.91e-05 s⁻¹, an MRT [11] of 14.5 h and a half-life [11] of 10.1 h. The CL [12] was 0.167 L/h, the Vd [12] was 2.43 L and the “Side effects of SCI supplementation noticed during the study” value (oral 10 mg/kg, up to 48 h) was “no side effects”. The “Time of highest average serum concentration” value (rats no. 1–3 (sampled 0–1.5, 12, 24 h), oral 10 mg/kg) was 1.5 h, the “Time of highest average serum concentration” value (rats no. 4–6 (sampled 2–48 h), oral 10 mg/kg) was 2 h and the “Time of first measurement of SCI concentration greater than 0 mg/L” value (serum, after oral 10 mg/kg) was 30 min.
